Results taken from patent publication US9957263B2, “Bromodomain inhibitors” (AbbVie Inc., priority 2013, dated 2018).

Tests used:
BRD4 (BDI_K57-E168) = BRD4 (BDI_K57-E168) (Homo sapiens (Human), UniProt O60885); assay: TR-FRET bromodomain binding assay, BRD4 first bromodomain; settings: His-tagged BD1, Alexa647-labeled probe 100 nM
Summary of the method: (§1)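 Probe displacement, TR-FRET: 8 nM His-BRD4 domain, 1 nM Eu-anti-His, Alexa647 BET-inhibitor probe 100 nM (BDI)/30 nM (BDII); 20 mM Na phosphate pH 6.0, 50 mM NaCl, 1 mM DTT; cpd 50 μM-0.85 nM, 3-fold; 1 h RT; Ex 340/[…]; IC50 → Ki.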

BRD4 (BDII_E352-M457) = BRD4 (BDII_E352-M457) (Homo sapiens (Human), UniProt O60885); assay: TR-FRET bromodomain binding assay, BRD4 second bromodomain; settings: His-tagged BD2, Alexa647-labeled probe 30 nM
Summary of the method: as §1

[1] = test system: LPS induced IL-6 (Interleukin-6) production; assay: LPS (lipopolysaccharide) induced IL-6 production mouse assay; assay type: in vivo; settings: CD-1 female mice, oral administration one hour before LPS 2.5 mg/kg intraperitoneal, serum 2 hours after LPS; p value less than 0.05
Experimental: Example 2 was assayed for its ability to inhibit LPS (lipopolysaccharide) induced IL-6 (Interleukin-6) production in mice. CD-1 female mice (Charles River Laboratories, 5 per group) received an intraperitoneal challenge of lipopolysaccharide (2.5 mg/kg, L2630 E. coli 0111:B4) one hour after oral administration of compound or compound vehicle. Mice were euthanized 2 hours after lipopolysaccharide injection, blood was removed by cardiac puncture, and then the serum harvested from the blood samples was frozen at −80 OC. On the day of the assay the serum samples were brought to room temperature and then diluted 1:20 in phosphate-buffered saline containing 2% bovine serum albumin. Interleukin-6 measurements were performed using a cytokine assay from Meso Scale Discovery (Gaithersburg, Md.) for mouse serum analysis according to the manufacturer's protocol and read on a SECTOR Imager 6000 (Meso Scale Discovery, Gaithersburg, Md.) instrument. Statistical analysis was performed using Prism software (version 5.0) incorporating Dunnett's one way ANOVA. The IL-6 mean and standard deviation of the group of vehicle treated animals were compared with the IL-6 mean and standard deviation of the group treated with drug. A p value <0.05 means that there is less than a 5% probability that the mean values in the two groups are equal.

[2] = test system: breast cancer cell line MX-1; assay: MX-1 cell line proliferation assay, Method A; assay type: cell-based; settings: MX-1 cells, 96-well, 72 hours, Cell Titer Glo; read-out: Cellular proliferation: EC50 Method A
Experimental: (§2) The impact of compounds of the Examples on cancer cell proliferation was determined using the breast cancer cell line MX-1 (ATCC) in a 3-day proliferation assay and the data are reported in Table 1.
For compound testing, MX-1 cells were plated in 96-well black bottom plates at a density of 5000 cells/well in 90 μL of culture media and incubated at 370 overnight to allow cell adhesion and spreading. Compound dilution series were prepared in DMSO via a 3-fold serial dilution from 3 mM to 0.1 μM. The DMSO dilution series were then diluted 1:100 in phosphate buffered saline, and 10 μL of the resulted solution were added to the appropriate wells of the MX-1 cell plate. The final compound concentrations in the wells were 3, 1, 0.3, 0.1, 0.03, 0.01, 0.003, 0.001, 0.0003 and 0.0001 μM.
(§3) Luminescence readings from the Cell Titer Glo assay were normalized to the DMSO treated cells and analyzed using the GraphPad Prism software with sigmoidal curve fitting to obtain EC50s. The minimum significant ratio (MSR) was determined to evaluate assay reproducibility (Eastwood et al., (2006) J Biomol Screen, 11: 253-261).

[3] = test system: breast cancer cell line MX-1; assay: MX-1 cell line proliferation assay, Method B; assay type: cell-based; settings: Homo sapiens, MX1; MX-1 cells, 384-well, 72 hours, Cell Titer Glo; read-out: Cellular proliferation: EC50 Method B
Experimental: as §2
Method B: MX-1 cells were maintained in RPMI 1640 medium (Sigma) supplemented with 10% FBS at 37 C.° and an atmosphere of 5% CO2. For compound testing, MX-1 cells were plated in 384-well white with clear, flat bottom plates at a density of 750 cells/well in 25 μL of culture media and incubated at 370 overnight to allow cell adhesion and spreading. Ten point compound dilution series were prepared in DMSO via a 3-fold serial dilution from either […] or 1 μM stock and added directly to the appropriate wells of the MX-1 cell plate by an ECHO liquid handler (Labcyte). The final compound concentrations in the wells were 10, 3.25, 1, 0.25, 0.124, 0.040, 0.0124, 0.0031, 0.0015 and 0.0005 μM or 1, 0.33, 0.1, 0.025, 0.0124, 0.004, 0.0012, 0.0003, 0.00015, 0.00005 μM, depending on the concentration of the compound stock solution.
as §3, with “Accelrys Assay Explorer 3.3” for “the GraphPad Prism”, “ECsos.” for “EC50s.”, “253-261). The overall MSR was determined to be 3.3 and a moving MSR (last six run MSR overtime) has averaged” for “253-261).”

Row | SMILES | Ki (BRD4 (BDI_K57-E168)) [nM] | Ki (BRD4 (BDII_E352-M457)) [nM] | inhibition of LPS induced IL-6 production [1] [%] | EC50 [2] [nM] | EC50 [3] [nM]
1 | CCS(=O)(=O)Nc1cc(-c2cn(C)c(=O)c3[nH]ccc23)c(Oc2ccc(F)cc2F)cc1CN(C)C [Example 2, N-[4-(2,4-difluorophenoxy)-2-[(dimethylamino)methyl]-5-(6-methyl-7-oxo-6,7-dihydro-1H-pyrrolo[2,3-c]pyridin-4-yl)phenyl]ethanesulfonamide] | 57 | 4 | 45 |  | 
2 | COc1ccc(S(=O)(=O)Nc2cccc(Oc3ccc(S(C)(=O)=O)cc3-c3cn(C)c(=O)c4[nH]ccc34)c2)cc1OC [Example 53] |  |  |  | 144 | 
3 | Cn1cc(-c2cc(S(C)(=O)=O)ccc2NC2CCN(S(=O)(=O)/C=C/c3ccccc3)CC2)c2cc[nH]c2c1=O [Example 102] |  |  |  | 67.3 | 
4 | CCNC(=O)c1cc2c(-c3ccc(C(=O)N(CC#N)c4ccccc4)cc3Oc3c(C)cccc3C)cn(C)c(=O)c2[nH]1 [Example 177, 4-{4-[(cyanomethyl)(phenyl)carbamoyl]-2-(2,6-dimethylphenoxy)phenyl}-N-ethyl-6-methyl-7-oxo-6,7-dihydro-1H-pyrrolo[2,3-c]pyridine-2-carboxamide] | 1490 | 9.21 |  |  | 10000
5 | CCNC(=O)c1cc2c(-c3ccc(C(=O)N(CCN(CC)CC)c4ccccc4OC)cc3Oc3c(C)cccc3C)cn(C)c(=O)c2[nH]1 [Example 178, 4-[4-{[2-(diethylamino)ethyl](2-methoxyphenyl)carbamoyl}-2-(2,6-dimethylphenoxy)phenyl]-N-ethyl-6-methyl-7-oxo-6,7-dihydro-1H-pyrrolo[2,3-c]pyridine-2-carboxamide] | 592 | 2.5 |  |  | 10000
6 | CCNC(=O)c1cc2c(-c3ccc(C(=O)N(CCN(C)C)c4ccccc4)cc3Oc3c(C)cccc3C)cn(C)c(=O)c2[nH]1 [Example 179, 4-[4-{[2-(dimethylamino)ethyl](phenyl)carbamoyl}-2-(2,6-dimethylphenoxy)phenyl]-N-ethyl-6-methyl-7-oxo-6,7-dihydro-1H-pyrrolo[2,3-c]pyridine-2-carboxamide] | 1580 | 8.24 |  |  | 991
7 | CCNC(=O)c1cc2c(-c3ccc(C(=O)N(CCCC(=O)OCC)c4ccccc4)cc3Oc3c(C)cccc3C)cn(C)c(=O)c2[nH]1 [Example 180, ethyl 4-[{3-(2,6-dimethylphenoxy)-4-[2-(ethylcarbamoyl)-6-methyl-7-oxo-6,7-dihydro-1H-pyrrolo[2,3-c]pyridin-4-yl]benzoyl}(phenyl)amino]butanoate] | 8610 | 30.8 |  |  | 6060
8 | CCNC(=O)c1cc2c(-c3ccc(C(=O)N(CCN(C)C)c4ccccn4)cc3Oc3c(C)cccc3C)cn(C)c(=O)c2[nH]1 [Example 181, 4-[4-{[2-(dimethylamino)ethyl](pyridin-2-yl)carbamoyl}-2-(2,6-dimethylphenoxy)phenyl]-N-ethyl-6-methyl-7-oxo-6,7-dihydro-1H-pyrrolo[2,3-c]pyridine-2-carboxamide] | 1730 | 9.18 |  |  | 3980
9 | CCNC(=O)c1cc2c(-c3ccc(C(=O)N(CCN(CC)CC)c4ccccc4)cc3Oc3c(C)cccc3C)cn(C)c(=O)c2[nH]1 [Example 182, 4-[4-{[2-(diethylamino)ethyl](phenyl)carbamoyl}-2-(2,6-dimethylphenoxy)phenyl]-N-ethyl-6-methyl-7-oxo-6,7-dihydro-1H-pyrrolo[2,3-c]pyridine-2-carboxamide] | 921 | 6.06 |  |  | 2120
10 | CCNC(=O)c1cc2c(-c3ccc(C(=O)N(CC#N)c4ccc(OC)cc4)cc3Oc3c(C)cccc3C)cn(C)c(=O)c2[nH]1 [Example 183, 4-{4-[(cyanomethyl)(4-methoxyphenyl)carbamoyl]-2-(2,6-dimethylphenoxy)phenyl}-N-ethyl-6-methyl-7-oxo-6,7-dihydro-1H-pyrrolo[2,3-c]pyridine-2-carboxamide] | 2800 | 14.1 |  |  | 1480
11 | CCCCN(CCC#N)C(=O)c1ccc(-c2cn(C)c(=O)c3[nH]c(C(=O)NCC)cc23)c(Oc2c(C)cccc2C)c1 [Example 184, 4-{4-[butyl(2-cyanoethyl)carbamoyl]-2-(2,6-dimethylphenoxy)phenyl}-N-ethyl-6-methyl-7-oxo-6,7-dihydro-1H-pyrrolo[2,3-c]pyridine-2-carboxamide] | 1080 | 11.1 |  |  | 2840
12 | CCNC(=O)c1cc2c(-c3ccc(C(=O)N(CCN(C)C)c4ccnc(F)c4)cc3Oc3c(C)cccc3C)cn(C)c(=O)c2[nH]1 [Example 185, 4-[4-{[2-(dimethylamino)ethyl](2-fluoropyridin-4-yl)carbamoyl}-2-(2,6-dimethylphenoxy)phenyl]-N-ethyl-6-methyl-7-oxo-6,7-dihydro-1H-pyrrolo[2,3-c]pyridine-2-carboxamide] | 2940 | 14.3 |  |  | 2720
13 | CCNC(=O)c1cc2c(-c3ccc(C(=O)N(c4ccccc4)C4CCCCC4)cc3Oc3c(C)cccc3C)cn(C)c(=O)c2[nH]1 [Example 186, 4-{4-[cyclohexyl(phenyl)carbamoyl]-2-(2,6-dimethylphenoxy)phenyl}-N-ethyl-6-methyl-7-oxo-6,7-dihydro-1H-pyrrolo[2,3-c]pyridine-2-carboxamide] | > 12700 | 178 |  |  | 7650
14 | Cc1cccc(C)c1Oc1ccc(S(C)(=O)=O)cc1-c1cn(C)c(=O)c2[nH]c(C(=O)NCCCN(C)C3CCCCC3)cc12 [Example 187, N-{3-[cyclohexyl(methyl)amino]propyl}-4-[2-(2,6-dimethylphenoxy)-5-(methylsulfonyl)phenyl]-6-methyl-7-oxo-6,7-dihydro-1H-pyrrolo[2,3-c]pyridine-2-carboxamide] | 99.8 | 2.52 |  |  | 290
15 | CN1CCN(Cc2cc3c(-c4cc(S(C)(=O)=O)ccc4Oc4ccc(F)cc4F)cn(C)c(=O)c3[nH]2)C(c2ccccc2)C1 (centres unmarked) [Example 188, 4-[2-(2,4-difluorophenoxy)-5-(methylsulfonyl)phenyl]-6-methyl-2-[(4-methyl-2-phenylpiperazin-1-yl)methyl]-1,6-dihydro-7H-pyrrolo[2,3-c]pyridin-7-one] | 1.56 | 151 |  |  | 76.8
